Test results reported in ChEMBL document CHEMBL1201862, “PubChem BioAssay data set” (2004).
Active and inactive are the calls of the source.

Assays:
[1] = cells; type: functional
[2] = biological target: Glucose-6-phosphate 1-dehydrogenase (Homo sapiens, UniProt P11413); assay: inhibition of Homo sapiens G6PD, dose series – biochemical, fluorescence, selectivity assay for P. falciparum G6PD inhibitor project, dose response (AID 504792); type: functional
[3] = biological target: T1, Carboxy-terminal domain RNA polymerase II polypeptide A small phosphatase 1 (Homo sapiens, UniProt Q9GZU7); assay: CTDSP1 inhibitors, concentration-response, biochemical, absorbance readout, ultra-high-throughput screen actives (AID 540297); type: functional
T1 sequence (Q9GZU7 whole entry): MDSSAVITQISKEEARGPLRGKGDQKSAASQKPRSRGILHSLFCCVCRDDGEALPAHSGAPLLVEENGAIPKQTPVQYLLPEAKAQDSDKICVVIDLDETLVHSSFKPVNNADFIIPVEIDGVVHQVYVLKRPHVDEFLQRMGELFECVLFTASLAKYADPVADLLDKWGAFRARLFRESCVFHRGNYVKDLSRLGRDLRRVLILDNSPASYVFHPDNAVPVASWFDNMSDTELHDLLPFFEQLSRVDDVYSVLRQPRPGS

[4] = P. falciparum Dd2 growth inhibitors, dose response, SYBR Green, cherry-picked samples (AID 1159567); type: functional, cell-based
[5] = NIH-3T3 fibroblast cytotoxicity, dose response, cytotoxicity control, cell-based, fluorescence, Alamar Blue, secondary assay (AID 2327); type: functional;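 further: NIH-3T3 mouse fibroblasts cultured with fluconazole at 8 µg/mL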
[6] = fluconazole-exposed Candida albicans growth modulators – fluorescence, retest, confirmation (AID 2467); type: functional, cell-based
[7] = DRD fibroblast viability loss – cell-based, non-viral oncogenic, luminescence, dose response (AID 1934); type: functional; details: Homo sapiens
[8] = biological target: T2, Heat shock factor protein 1 (Mus musculus, UniProt P38532); assay: enhancement of HSF1-driven luciferase signal – cell-based, NIH3T3, luminescence, dose retest, confirmation (AID 435004); type: functional;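 further: stress induced by proteasome inhibitor MG132 added 30 min after compound; luciferase reporter driven by HSF1 response element in NIH3T3 cells; actives raise luminescence as potentiators of the MG132 stress response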
T2 sequence (P38532 whole entry): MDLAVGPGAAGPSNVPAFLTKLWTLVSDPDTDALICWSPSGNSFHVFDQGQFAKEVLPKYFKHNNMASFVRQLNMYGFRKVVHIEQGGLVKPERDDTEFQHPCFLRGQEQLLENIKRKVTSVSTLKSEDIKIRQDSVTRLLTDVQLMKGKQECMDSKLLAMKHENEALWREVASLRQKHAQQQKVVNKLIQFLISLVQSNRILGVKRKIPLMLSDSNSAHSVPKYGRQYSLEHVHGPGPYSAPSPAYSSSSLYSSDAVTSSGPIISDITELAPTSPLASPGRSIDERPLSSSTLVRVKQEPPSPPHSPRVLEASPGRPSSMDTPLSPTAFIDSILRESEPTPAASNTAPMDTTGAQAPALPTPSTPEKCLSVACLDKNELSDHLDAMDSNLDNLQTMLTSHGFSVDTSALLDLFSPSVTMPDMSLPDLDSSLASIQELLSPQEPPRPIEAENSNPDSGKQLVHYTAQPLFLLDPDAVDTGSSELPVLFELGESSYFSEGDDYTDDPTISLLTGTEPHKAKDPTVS

[9] = tested on: BJ; assay: cells; type: functional, cell-based; details: Homo sapiens
[10] = tested on: BJ; assay: BJ-TERT fibroblast viability loss – cell-based, RAS-independent, luminescence, dose response (AID 1933); type: functional; details: Homo sapiens
[11] = tested on: BJ; assay: BJ-TERT-LT-ST fibroblast viability loss – cell-based, RAS-independent, luminescence, dose response (AID 1935); type: functional; details: Homo sapiens;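 further: BJ fibroblasts immortalized with TERT plus LT and ST oncogenes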
[12] = biological target: Genome polyprotein (dengue virus type 2, UniProt P29990); assay: flavivirus cap methylation enzyme inhibition – biochemical, confirmation dose response, primary screen (AID 588689); type: functional
[13] = biological target: T3, Rac GTPase-activating protein 1 (Homo sapiens, UniProt Q9H0H5); assay: blockers of MgcRacGAP-driven Rac1 GTP hydrolysis – biochemical, ADP Hunter fluorescence, primary and confirmatory, confirmation (AID 624330); type: functional
T3 sequence (Q9H0H5 whole entry): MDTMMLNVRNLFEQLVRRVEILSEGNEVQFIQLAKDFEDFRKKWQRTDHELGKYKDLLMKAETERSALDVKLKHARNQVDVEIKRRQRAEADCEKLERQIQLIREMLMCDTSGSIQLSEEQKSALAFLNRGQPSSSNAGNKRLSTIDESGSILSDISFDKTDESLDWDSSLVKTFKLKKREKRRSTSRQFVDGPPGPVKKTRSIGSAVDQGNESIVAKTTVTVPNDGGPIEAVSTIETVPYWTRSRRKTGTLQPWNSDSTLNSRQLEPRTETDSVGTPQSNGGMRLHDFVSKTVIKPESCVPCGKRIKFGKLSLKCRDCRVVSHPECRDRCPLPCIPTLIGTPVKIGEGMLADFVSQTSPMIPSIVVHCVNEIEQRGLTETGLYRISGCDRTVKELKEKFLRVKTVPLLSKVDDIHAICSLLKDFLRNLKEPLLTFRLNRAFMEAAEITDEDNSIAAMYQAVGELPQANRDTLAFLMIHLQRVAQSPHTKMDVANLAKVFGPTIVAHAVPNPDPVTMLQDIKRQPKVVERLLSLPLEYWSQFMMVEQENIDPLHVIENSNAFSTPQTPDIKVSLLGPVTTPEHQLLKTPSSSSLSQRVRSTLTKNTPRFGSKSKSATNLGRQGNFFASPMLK

[14] = biological target: T2, Heat shock factor protein 1; assay: decrease of HSF1-responsive luciferase luminescence – cell-based, NIH3T3, dose retest, confirmation (AID 2382); type: functional;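 further: NIH3T3 fibroblasts with HSF1-driven luciferase reporter stressed by proteasome inhibitor MG132; luminescence from HSF1-driven luciferase expression after 8 hours of MG132 stress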
[15] = biological target: T4, Protein skinhead-1 (Caenorhabditis elegans, UniProt P34707); type: functional
T4 sequence (P34707 whole entry): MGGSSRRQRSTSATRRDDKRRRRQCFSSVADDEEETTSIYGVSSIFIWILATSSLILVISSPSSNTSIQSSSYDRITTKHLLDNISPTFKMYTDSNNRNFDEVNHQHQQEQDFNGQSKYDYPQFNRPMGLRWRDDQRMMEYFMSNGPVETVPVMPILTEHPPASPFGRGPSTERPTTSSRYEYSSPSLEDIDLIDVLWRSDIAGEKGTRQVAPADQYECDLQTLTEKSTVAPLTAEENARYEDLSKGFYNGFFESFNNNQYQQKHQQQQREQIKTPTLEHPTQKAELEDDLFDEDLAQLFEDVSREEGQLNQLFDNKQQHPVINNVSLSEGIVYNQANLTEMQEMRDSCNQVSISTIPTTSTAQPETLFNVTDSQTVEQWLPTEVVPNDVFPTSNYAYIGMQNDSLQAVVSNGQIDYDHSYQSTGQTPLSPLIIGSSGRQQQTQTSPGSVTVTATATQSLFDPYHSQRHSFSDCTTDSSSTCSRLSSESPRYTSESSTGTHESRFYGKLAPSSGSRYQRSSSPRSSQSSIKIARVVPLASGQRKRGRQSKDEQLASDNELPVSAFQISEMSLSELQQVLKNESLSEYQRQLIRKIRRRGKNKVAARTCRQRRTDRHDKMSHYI

Chain of Genome polyprotein (P29990 2492-3391 limits assumed): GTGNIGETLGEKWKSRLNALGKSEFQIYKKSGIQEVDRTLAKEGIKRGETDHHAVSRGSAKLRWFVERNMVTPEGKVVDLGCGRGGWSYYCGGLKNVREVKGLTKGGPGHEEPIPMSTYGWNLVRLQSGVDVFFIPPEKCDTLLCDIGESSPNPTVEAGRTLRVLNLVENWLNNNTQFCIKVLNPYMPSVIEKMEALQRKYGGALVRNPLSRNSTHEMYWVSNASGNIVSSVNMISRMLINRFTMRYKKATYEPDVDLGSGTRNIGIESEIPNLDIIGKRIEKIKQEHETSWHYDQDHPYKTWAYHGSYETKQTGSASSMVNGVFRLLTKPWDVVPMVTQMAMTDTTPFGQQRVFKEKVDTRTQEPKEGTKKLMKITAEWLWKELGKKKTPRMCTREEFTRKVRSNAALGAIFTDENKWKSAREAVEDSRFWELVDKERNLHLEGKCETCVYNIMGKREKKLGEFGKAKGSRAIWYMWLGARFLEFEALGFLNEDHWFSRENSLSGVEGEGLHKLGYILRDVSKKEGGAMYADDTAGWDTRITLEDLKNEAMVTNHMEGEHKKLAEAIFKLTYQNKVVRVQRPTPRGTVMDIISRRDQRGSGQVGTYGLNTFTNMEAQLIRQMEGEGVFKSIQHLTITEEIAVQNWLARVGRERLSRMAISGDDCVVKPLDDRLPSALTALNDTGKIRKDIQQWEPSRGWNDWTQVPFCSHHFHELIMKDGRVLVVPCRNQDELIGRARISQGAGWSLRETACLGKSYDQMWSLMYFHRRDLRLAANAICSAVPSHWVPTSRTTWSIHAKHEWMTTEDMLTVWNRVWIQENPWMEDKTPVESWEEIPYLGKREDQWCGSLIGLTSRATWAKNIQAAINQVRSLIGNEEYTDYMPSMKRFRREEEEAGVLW
Chain of Glucose-6-phosphate 1-dehydrogenase (P11413 whole entry, the tested form may be a part): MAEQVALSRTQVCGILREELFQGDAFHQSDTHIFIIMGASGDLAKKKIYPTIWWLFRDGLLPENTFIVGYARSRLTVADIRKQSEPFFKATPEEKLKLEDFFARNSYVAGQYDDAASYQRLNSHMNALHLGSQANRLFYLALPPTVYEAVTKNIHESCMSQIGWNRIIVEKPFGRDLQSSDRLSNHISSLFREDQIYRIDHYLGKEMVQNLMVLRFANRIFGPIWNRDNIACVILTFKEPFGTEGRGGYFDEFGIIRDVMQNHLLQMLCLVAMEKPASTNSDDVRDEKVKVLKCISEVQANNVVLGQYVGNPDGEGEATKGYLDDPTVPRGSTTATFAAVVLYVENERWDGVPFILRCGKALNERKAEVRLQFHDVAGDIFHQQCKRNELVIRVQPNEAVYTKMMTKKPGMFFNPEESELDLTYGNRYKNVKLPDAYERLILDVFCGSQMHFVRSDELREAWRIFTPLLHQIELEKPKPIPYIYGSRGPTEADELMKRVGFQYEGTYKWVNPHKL

## COC(=O)COc1cccc(NC(=O)c2cccc(C)c2)c1
[1]
  IC50: 17.6 µM (active)

## O=c1[nH]c2ccc(NCc3ccccc3OCc3ccc(Cl)cc3)cc2[nH]1
[2]
  IC50: > 80 µM (inactive)

## Cc1ccc2nc(C)c3c(c2c1)SCC3
[1]
  IC50: 24.6 µM (active)

## Cc1ccc(NC(=O)COc2ccc(/C=N\NC(=O)c3cccnc3)cc2)cc1C
[3]
  IC50: 10 µM (active)

## COc1cccc(CN2C[C@@H]3N[C@H](C2)[C@H]3c2ccc(-c3ccncc3)cc2)c1
[4]
  AC50: 7.31 µM (active)

## CC(C)OP(=O)(c1ccc(N(C)C)cc1)C(O)c1ccccc1 (stereo not given)
[5]
  EC50: > 160 µM (inconclusive)
[6]
  EC50: 3.06 µM (active)

## O=C1/C(=C/c2ccccc2Cl)SC(=S)N1CCC(=O)N1CCCCC1CCO (stereo not given)
[7]
  EC50: 45.3 µM (active)
[8]
  EC50: > 260 µM (inactive)
[9]
  EC50: > 150 µM (inconclusive)
[10]
  EC50: 19 µM (active)
[11]
  EC50: > 150 µM (not active)

## C/C=C/c1ccc([C@@H]2[C@H](CO)N(CC3CC3)C23CN(C(=O)c2ccc4c(c2)OCO4)C3)cc1
[4]
  AC50: 4.44 µM (active)

## Cc1c(C(=O)NNC(=O)c2csc(N3CCOCC3)n2)oc2ccccc12
[1]
  IC50: 13.2 µM (active)

## CCC(=O)N1[C@H](CO)[C@@H](c2ccccc2-c2cccc(C)c2)[C@@H]1C#N
[4]
  AC50: > 42 µM (inactive)

## CCOC(=O)N1CCC(N2Cc3cccc(C(=O)NCc4ccc5c(c4)OCO5)c3C2=O)CC1
[3]
  IC50: 15 µM (active)

## Cc1ccc(C(C2=C(O)CC(C)(C)CC2=O)C2C(=O)CC(C)(C)CC2=O)o1 (stereo not given)
[12]
  IC50: 60 µM (active)
[13]
  IC50: 56.4 µM (active)

## c1ccc(OCCSc2nc3ccccc3o2)cc1
[14]
  EC50: > 195 µM (not active)
[15]
  IC50: 32.4 µM (active)

## CCn1c(COc2ccc(=O)n(-c3ccccc3)n2)nnc1SCc1cccc(OC)c1
[5]
  EC50: > 160 µM (inactive)
[6]
  EC50: > 38 µM (not active)

## O=C(NN=Cc1cc(Br)c(O)c(Br)c1)c1ccccc1NS(=O)(=O)c1cccs1
[12]
  IC50: 27.7 µM (active)

## Cc1ccc(C(=O)CC(=O)COc2ccc(Cl)cc2)cc1
[5]
  EC50: > 150 µM (inconclusive)
[6]
  EC50: 1.62 µM (active)
